In patent US20160311826A1, “SGC STIMULATORS” (IRONWOOD PHARMACEUTICALS, INC., priority 2013, published 2016):

Tests used:
mdx mouse = details: cited from earlier work
[1] = tested on: dystrophin-deficient zebra fish; details: cited from earlier work
[2] = tested on: sickle cell disease patients with PHT; details: cited from earlier work
sickle mice = details: oral, high doses; cited from earlier work
[3] = tested on: sickle cell disease patients with VOE; details: cited from earlier work
[4] = tested on: adult sickle cell disease patients; details: infusions; cited from earlier work
[5] = molecular target: T1, soluble guanylate cyclase (sGC) (Homo sapiens, UniProt Q02108+Q02153); assay: sGC-HEK-cGMP assay with LC/MS detection; assay type: cell-based; details: HEK293 cells, 10 μM DETA-NONOate; concentration eliciting 50% of high control response (30 μM Compound Y); read-out: sGC_HEK_LC MS EC50 Abs
T1 construct: endogenously expressing soluble guanylate cyclase (sGC); endogenous in cells; host or cells: HEK293
T1 sequence (Q02153 1-619): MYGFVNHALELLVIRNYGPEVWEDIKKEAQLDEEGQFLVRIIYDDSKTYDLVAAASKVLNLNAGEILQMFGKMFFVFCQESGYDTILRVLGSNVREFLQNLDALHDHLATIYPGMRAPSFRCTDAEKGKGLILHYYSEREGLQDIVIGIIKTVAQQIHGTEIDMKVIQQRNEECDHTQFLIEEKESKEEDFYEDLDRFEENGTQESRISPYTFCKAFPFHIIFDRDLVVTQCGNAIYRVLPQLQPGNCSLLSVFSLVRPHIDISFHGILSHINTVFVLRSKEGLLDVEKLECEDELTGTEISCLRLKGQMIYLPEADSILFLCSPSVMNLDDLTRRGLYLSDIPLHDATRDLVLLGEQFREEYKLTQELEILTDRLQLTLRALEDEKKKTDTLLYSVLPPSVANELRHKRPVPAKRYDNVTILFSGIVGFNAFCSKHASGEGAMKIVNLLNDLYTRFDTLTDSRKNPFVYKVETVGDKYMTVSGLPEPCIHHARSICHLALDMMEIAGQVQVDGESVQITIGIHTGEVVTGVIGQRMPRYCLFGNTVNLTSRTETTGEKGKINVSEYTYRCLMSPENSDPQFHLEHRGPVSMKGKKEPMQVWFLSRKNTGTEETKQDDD
T1 sequence (Q02108 1-690): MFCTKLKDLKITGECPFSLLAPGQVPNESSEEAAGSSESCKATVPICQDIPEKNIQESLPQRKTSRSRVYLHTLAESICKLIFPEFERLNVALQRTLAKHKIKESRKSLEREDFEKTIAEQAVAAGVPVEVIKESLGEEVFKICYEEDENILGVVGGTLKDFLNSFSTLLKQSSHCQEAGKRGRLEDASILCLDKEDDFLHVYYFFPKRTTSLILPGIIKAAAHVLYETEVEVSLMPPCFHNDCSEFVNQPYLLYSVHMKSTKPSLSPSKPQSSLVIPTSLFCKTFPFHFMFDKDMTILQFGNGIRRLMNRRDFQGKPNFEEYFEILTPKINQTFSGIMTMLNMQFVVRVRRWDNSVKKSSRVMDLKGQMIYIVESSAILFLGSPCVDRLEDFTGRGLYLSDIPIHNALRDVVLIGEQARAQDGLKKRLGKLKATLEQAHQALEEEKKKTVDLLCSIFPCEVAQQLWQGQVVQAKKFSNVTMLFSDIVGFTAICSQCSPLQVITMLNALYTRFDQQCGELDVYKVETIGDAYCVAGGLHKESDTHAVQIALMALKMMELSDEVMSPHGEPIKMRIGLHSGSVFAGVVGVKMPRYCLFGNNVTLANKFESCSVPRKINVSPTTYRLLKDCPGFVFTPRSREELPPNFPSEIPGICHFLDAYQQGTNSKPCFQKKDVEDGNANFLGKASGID
Description: Human embryonic kidney cells (HEK293), endogenously expressing soluble guanylate cyclase (sGC), were used to evaluate the activity of test compounds. Compounds stimulating the sGC enzyme should cause an increase in the intracellular concentration of cGMP. HEK 293 cells were seeded in Dulbecco's Modification of Eagle's Medium supplemented with fetal bovine serum (10% final) and penicillin (100 U/mL)/streptomycin (100 ug/mL) in a […] at a density of 1.5×10^4 cells/well in a poly-D-lysine coated 384 well flat bottom plate. Cells were incubated overnight at 37° C. in a humidified chamber with 5% CO2. Medium was aspirated and cells were washed with 1× Hank's Buffered Saline Salt Solution […]. Cells were then incubated for 15 minutes at 37° C. with 50 μL of a 0.5 mM 3-isobutyl-1-methylxanthine (IBMX) solution. Test article and Diethylenetriamine NONOate (DETA-NONOate) solutions (x μM concentration for test article solution and 10 μM concentration for DETA-NONOate solution; wherein x is one of the following concentrations);
were then added to the assay mixture and the resulting mixture incubated at 37° C. for 20 minutes. After the 20 minute incubation, the assay mixture was aspirated and 10% acetic acid containing 150 ng/mL+3-cGMP (internal standard for LCMS) (50 μL) was added to the cells. The plate was incubated at 4° C. for 30 minutes in the acetic acid solution to stop the reaction and lyse the cells. The plates were then centrifuged at 1,000g for 3 minutes at 4° C. and the supernatant transferred to a clean reaction plate for LCMS analysis.
cGMP concentrations were determined from each sample using the LCMS conditions below (Table 2) and calculated standard curve. The standard curve was prepared in 10% acetic acid with 150 ng/mL+3cGMP (isotopically labelled cGMP with a weight 3 units higher than wild type) with the following final concentrations of cGMP in ng/mL: 1, 5, 10, 50, 100, 250, 500, 1000, 2000.
Data were normalized to a high control using the following equation: 100*(Sample−Low Control)/(High Control−Low Control), where the low control is the average of 16 samples treated with 1% DMSO, and the high control is the average of 16 samples treated with 30 μM of Compound Y depicted below. Data were fit using a 4-parameter fit (log(agonist) vs. response−variable slope) using GraphPad Prism Software v.5. n=2 for all compounds. The Absolute EC50 was interpolated from the curve fit and is defined as the concentration at which a given compound elicits 50% of the high control response. Compounds failing to elicit a minimum response of 50% are reported as >30 μM. For compounds run in duplicate or n higher than 2, the result herein given is the geometric mean of the several results obtained.
Code definitions for the whole cell HEK assay values, expressed as Absolute EC50 which is defined as the concentration at which a given compound elicits 50% of the high control response (Compound Y). Compounds failing to elicit a minimum response of 50% are reported as *.

[6] = molecular target: T2, human recombinant soluble guanylate cyclase enzyme α1β1 (h sGC) (Homo sapiens, UniProt Q02108+Q02153); assay: Purified human recombinant sGC α1β1 enzyme assay in the presence of DETA-NONOate (cGMP HTRF); assay type: biochemical; details: 30 uM DETA NONOate; concentration eliciting 50% of high control response (30 uM Compound Y); read-out: sGC_Enz_HTRF_a1b1 EC50 Abs
T2 construct: purchased Enzo Life Sciences ALX-201-177
T2 sequence (Q02108 1-690): T1 sequence (Q02108 1-690)
T2 sequence (Q02153 1-619): T1 sequence (Q02153 1-619)
Description: Purified human recombinant soluble guanylate cyclase enzyme α1β1 (h sGC) obtained from Enzo Life Sciences (P/N: ALX-201-177) was used to evaluate the activity of test compounds. The assay reactions contained 0.1 M Tris (pH 8.0), 0.5 mg/mL BSA, 2 mM DTT, 4 mM MgCl2, 30 uM DETA NONOate (Enzo Life Science P/N: ALX-430-014), and 12.5 ng/ml human soluble guanylate cyclase enzyme. […] Guanosine 5′-triphosphate (Sigma-Aldrich P/N: G8877) was added to a final concentration of 300 μM and enzyme reactions were incubated (100 μL, 384-well plate format) at 37° C. for 20 minutes. The controls contained 3% DMSO (low control), or 30 uM of Compound Y (high control). After the 20 minute incubation, the reaction was stopped with the addition of 100 μL of ice cold 20% acetic acid.
cGMP concentrations in all samples were determined using the cGMP HTRF (Cisbio P/N: 62GM2PEC) assay per manufacturer's instructions. A cGMP standard curve was fit using a 4-parameter fit (log(inhibitor) vs. response—variable slope) using GraphPad Prism Software v.6. Samples were diluted appropriately to ensure that values fell within the linear range of the standard curve. The EC50 was interpolated from the curve fit and is defined as the concentration at which the compound elicits 50% of the maximal response of the 30 uM of Compound Y, the high control compound.

[7] = tested on: Guinea pig tracheal smooth muscle (GPTSM) contraction; assay: Electrical field stimulated guinea pig tracheal smooth muscle contraction (ex vivo); details: sub-maximal EFS, cumulative dose response curve, three animals pooled; read-out: IC50, inhibition of EFS-induced tracheal smooth muscle contraction
Description: Electrical Field Stimulated Guinea Pig Tracheal Smooth Muscle In Vitro (ex vivo) model for the Assessment of Bronchodilation.
It is possible to assess the bronchodilating effects of sGC stimulators by using the system described below. […]
On each experimental day, a guinea pig is killed by exposure to a rising concentration of CO2 and the trachea removed. […] Tissues are washed with Kreb's buffer and stimulated using the previously determined sub-maximal voltage for 1 hour to establish a stable baseline contraction prior to assessment of compound activity.
A cumulative dose response curve (DRC) to each test substance is then performed and changes in smooth muscle contraction measured. The effect of each test substance in each experiment is expressed as a percentage inhibition of the baseline contraction, normalized to the relevant vehicle controls. […] The data from all three experiments are pooled, the DRC plotted, and the test substance potency and efficacy determined.

CCCc1nn(C)c2c(=O)[nH]c(-c3cc(S(=O)(=O)N4CCN(C)CC4)ccc3OCC)nc12 [sildenafil]
cardiac dynamics (mdx mouse; mdx mice): improve cardiac dynamics | muscle ischemia, injury and fatigue after a brief bout of exercise (mdx mouse; mdx mouse): alleviate muscle ischemia, as well as injury and fatigue | dystrophic skeletal muscle and survival [1]: rescue dystrophic skeletal muscle and prolong survival | PAP and exercise capacity ([2]; preliminary studies, sickle cell disease patients with severe PHT): improvements in PAP and exercise capacity | serious side effects (Walk-PHaSST trial) ([2]; sickle cell disease patients with Doppler-defined PHT, trial stopped prematurely): higher frequency of serious side effects, including increased rates of VOE, headache, and visual disturbance

N=C(N)NCCC[C@H](N)C(=O)O [L-aminine]
Gardos channel activity, dense cell formation, hemolysis, vascular reactivity (sickle mice): decrease Gardos channel activity, dense cell formation and homolysis, as well as functional improvements in vascular reactivity

nitric oxide [inhaled NO]
use of parenteral morphine ([3]; randomized placebo controlled trial, acute VOE, adult patients, compared with placebos): trend towards decreased use of parenteral morphine | pain scores ([3]; randomized placebo controlled trial, acute VOE, adult patients): significantly reduced pain scores | pain scores, analgesic requirements, hospital stay ([3]; sickle cell disease children presenting with VOE): trends toward lower pain scores, decreased analgesic requirements and a shorter hospital stay

O=NO [sodium nitrite]
forearm blood flow [4]: enhanced forearm blood flow

CC(C)Oc1cc(-c2nc(N)c3c(n2)NC(=O)C3(C)C(N)=O)nn1Cc1ccccc1F (stereo not drawn) [Compound I-39, 4-amino-2-(5-isopropoxy-1-(2-fluorobenzyl)-1H-pyrazol-3-yl)-5-methyl-6-oxo-6,7-dihydro-5H-pyrrolo[2,3-d]pyrimidine-5-carboxamide]
EC50 [5]: > 30 µM | EC50 [6]: > 5 µM

CC(C)[N+]1(C)[C@@H]2CC[C@H]1C[C@@H](OC(=O)C(CO)c1ccccc1)C2 (stereo partly drawn) [Ipratropium bromide]
IC50 [7]: 0.00086 µM

COc1nc(-c2ncc(F)c(O)n2)nn1Cc1ccccc1F [Compound I-3]
EC50 [5]: > 30 µM | EC50 [6]: > 30 µM
